# Earlier results in patent publication US8110703B2, “Retinoid derivative and pharmaceutical composition and use thereof” (Anhui Medical University, priority 2008, dated 2012).
# Test system: human acute promyelocytic leukaemia
# Conditions: cited from earlier work
smiles,measurement,setting,value
"CC1=C(/C=C/C(C)=C/C=C/C(C)=C/C(=O)O)C(C)(C)CCC1 [ATRA, all-trans retinoic acid]",incidence rate of increased leukocyte count,"during the treatment of APL, reported abroad",about 30%
same,complete remission rate,"human acute promyelocytic leukaemia, 5-year clinic summary",86%
